Values quoted from earlier work as cited in patent US20080131503A1 (priority 2005, published 2008).

Conditions: oral

CC(C)c1c(C(=O)Nc2ccccc2)c(-c2ccccc2)c(-c2ccc(F)cc2)n1CC[C@@H](O)C[C@@H](O)CC(=O)O [Atorvastatin]
Systemic availability of HMG-CoA reductase inhibitory activity: approximately 30%
